According to the CATMoS acute toxicity set (Mansouri et al. 2021):
Where “and” joins values, the source holds several entries; their conditions need not be identical. Equal values may be shown once.

Experiment: rat acute oral toxicity
Details: in vivo
Excerpt: […]The data set underlying the modeling effort for this project was initially compiled by NICEATM and U.S. EPA’s CCTE. Briefly, LD50 data were collected from rat acute oral systemic toxicity tests, including limit tests, ranges/confidence intervals, and discrete LD50 values. The full data set included 21,200 LD50 entries for 15,688 substances. […] Data were reviewed to ensure that LD50 values with obvious errors in the extracted data such as unit conversion errors (e.g., comma and decimal separator misplacements) were either fixed or removed. After this review, 16,209 LD50 values remained. Many of the chemicals represented had multiple LD50 entries, requiring that a single representative value per Chemical Abstracts Service Registry Number (CASRN) identifier be defined to facilitate modeling efforts. Based on ATWG feedback and to define the representative LD50 as a protective value while accounting for the distribution across multiple LD50s, the median of the lowest quartile was computed using only discrete LD50 values (omitting limit test data and range and confidence interval data). A detailed summary of the data compilation is available online on the NICEATM webpage dedicated to the collaborative modeling project (NTP 2020).
[…][…] For categorical designations, limit test and range/confidence interval LD50 data were integrated wherever possible. As such, the number of chemicals with end point values/calls varies across the modeling end points (Table 3) based on whether chemicals had representative LD50 values and/or other data. If a chemical had both, the representative value was used to determine categorical calls rather than limit test data. Some data were useable only for certain end points and categories depending on the thresholds. For example, ranges that spanned multiple hazard categories were considered only for the binary (very toxic/nontoxic) end points and omitted from rendering a determination for hazard category assignment.
[…]The final data set comprising 11,992 chemicals was split into training and evaluation sets […], respectively. This process was performed semirandomly by ordering chemicals based on the five end points (categorical and continuous LD50 values) and partitioning every fourth record into the evaluation set accordingly. This approach was taken to ensure an equivalent distribution of the LD50 values and the different hazard categories between the training and the evaluation sets without supervised sampling of the chemicals based on structures (Figure 1A). The sources of the chemical structures were also kept equivalent between the two sets, with chemical structures obtained from DSSTox, being the highest quality, representing over 75% of each set (Figure 1B).

## O=C(O)CCS
  LD50: 63 mg/kg

## ClC1=C(Cl)[C@]2(Cl)[C@@H]3[C@@H]4C[C@@H]([C@H]5O[C@@H]45)[C@@H]3[C@@]1(Cl)C2(Cl)Cl (single isomer, unassigned)
  LD50: 24 mg/kg

## O=C1NC(=O)C(c2ccccc2)(c2ccccc2)N1
  LD50: 250 mg/kg

## N=C(NCCCCCCNC(=N)NC(=N)Nc1ccc(Cl)cc1)NC(=N)Nc1ccc(Cl)cc1
  LD50: 1180 mg/kg

## O=C1C[C@@H]2OCC=C3CN4CC[C@]56c7ccccc7N1[C@H]5[C@H]2[C@H]3C[C@H]46
  LD50: 3.58 mg/kg

## CC(C)(C)CCCCCCCCCN
  LD50: 300 mg/kg

## O=[N+]([O-])c1ccc(Cl)cc1Cl
  LD50: 379 mg/kg

## CCCC(=O)O
  LD50: 1630 mg/kg

## CCCCCCCCCCCCCCCCCCN
  LD50: 1000 mg/kg

## CC(C)OC(=O)Nc1cccc(Cl)c1
  LD50: 1200 mg/kg

## CCOP(=O)(SC(C)CC)SC(C)CC (stereo unspecified)
  LD50: 37.1 mg/kg

## COC(=O)c1ccccc1O
  LD50: 887 mg/kg

## CCCCCCCO
  LD50: 500 mg/kg

## CN1CCCC1=O
  LD50: 3910 mg/kg

## CS
  LD50: 116 mg/kg

## c1ccc2ncccc2c1
  LD50: 331 mg/kg

## C=C(C)[C@@H]1CC=C(C)C(=O)C1
  LD50: 4900 mg/kg

## O=C(Cl)c1ccc(Cl)cc1
  LD50: 3150 mg/kg

## CC(C)(C)c1ccc(C(O)CCCN2CCC(C(O)(c3ccccc3)c3ccccc3)CC2)cc1 (stereo unspecified)
  LD50: 438 mg/kg

## CC=C1CC2C=CC1C2 (stereo unspecified)
  LD50: 2280 mg/kg

## CCCCCOC(C)=O
  LD50: 6500 mg/kg

## CC(C)(C)OOC(=O)c1ccccc1
  LD50: 1010 mg/kg

## Cc1cccc(N)c1
  LD50: 450 mg/kg

## CCCCCCCCCC(=O)O
  LD50: 3320 mg/kg

## O=c1oc2ccccc2c(O)c1C1CC(c2ccc(-c3ccc(Br)cc3)cc2)Cc2ccccc21 (stereo unspecified)
  LD50: 0.16 mg/kg

## CC(C)N(C(=O)CO)c1ccc(F)cc1
  LD50: 474 mg/kg

## Cc1ccc2nc(-c3ccc(N)cc3)sc2c1
  LD50: 5650 mg/kg

## COc1ccccc1O
  LD50: 520 mg/kg

## COc1nc(NC(C)C)nc(NC(C)C)n1
  LD50: 503 mg/kg

## CN(C)CCC=C1c2ccccc2CCc2ccccc21
  LD50: 280 mg/kg

## CC1(C)C(C(=O)OC(C#N)c2cccc(Oc3ccccc3)c2)C1(C)C (stereo unspecified)
  LD50: 66.7 mg/kg

## Cc1cc(Cl)ccc1OCC(=O)O
  LD50: 700 mg/kg

## CCCC(=O)OC(C(Cl)(Cl)Cl)P(=O)(OC)OC (stereo unspecified)
  LD50: 760 mg/kg

## CCCCC(CC)CO (stereo unspecified)
  LD50: 2050 mg/kg

## CC(C)NC(C)C
  LD50: 310 mg/kg

## CCCOCCO
  LD50: 3090 mg/kg

## CCCN(CC1CC1)c1c([N+](=O)[O-])cc(C(F)(F)F)cc1[N+](=O)[O-]
  LD50: 1810 mg/kg

## CI
  LD50: 76 mg/kg

## OCC1CO1 (stereo unspecified)
  LD50: 420 mg/kg

## N#CO
  LD50: 567 mg/kg and 582 mg/kg

## O=C(CS)OC(CO)CO
  LD50: 172 mg/kg

## ClC(Cl)(Cl)Cl
  LD50: 2350 mg/kg

## CC(=O)C1C(=O)C=C(C)OC1=O (stereo unspecified)
  LD50: 500 mg/kg

## CCCOCC(C)OCC(C)O (stereo unspecified)
  LD50: 1500 mg/kg

## CN=C(O)Oc1cccc(C)c1
  LD50: 268 mg/kg

## O=C(O)c1cc(Oc2ccc(C(F)(F)F)cc2Cl)ccc1[N+](=O)[O-]
  LD50: 1300 mg/kg

## C=CCBr
  LD50: 120 mg/kg

## CC(=O)CC(=O)Nc1ccccc1C
  LD50: 1020 mg/kg

## CC(C)(C)c1cc(C(C)(C)C)c(O)c(C(C)(C)C)c1
  LD50: 1610 mg/kg

## ClC(Cl)=C(Cl)Cl
  LD50: 2630 mg/kg

## Clc1cc(-c2cc(Cl)c(Cl)c(Cl)c2)cc(Cl)c1Cl
  LD50: 4250 mg/kg

## c1ccncc1
  LD50: 891 mg/kg

## O=c1n(CC2CO2)c(=O)n(CC2CO2)c(=O)n1CC1CO1 (stereo unspecified)
  LD50: 222 mg/kg

## c1ccc(Nc2ccccc2)cc1
  LD50: 1120 mg/kg

## CO[C@H]1/C=C/O[C@@]2(C)Oc3c(C)c(O)c4c(O)c(c(/C=N/N5CCN(C)CC5)c(O)c4c3C2=O)NC(=O)/C(C)=C\C=C\[C@H](C)[C@H](O)[C@@H](C)[C@@H](O)[C@@H](C)[C@H](OC(C)=O)[C@@H]1C
  LD50: 900 mg/kg

## CCCCCCCCCCCCCCCC[N+](C)(C)C
  LD50: 450 mg/kg

## CC(=O)O[Si](C)(OC(C)=O)OC(C)=O
  LD50: 1550 mg/kg

## CN(C)C
  LD50: 460 mg/kg

## ClC=CCCl
  LD50: 110 mg/kg

## CC1(C)OC[C@@H]2O[C@@]3(C(=O)O)OC(C)(C)O[C@H]3[C@@H]2O1
  LD50: 18000 mg/kg

## CC(C)(c1ccc(O)cc1)c1cccc(C(C)(C)c2ccc(O)cc2)c1
  LD50: 5460 mg/kg

## OCCOc1ccccc1
  LD50: 1370 mg/kg

## CCCCNC(=O)OCC#CI
  LD50: 1100 mg/kg

## Clc1cc2c(c(Cl)c1Cl)Oc1cc(Cl)c(Cl)c(Cl)c1O2
  LD50: 0.8 mg/kg

## O=c1sc2ccccc2c(O)c1C1CC(c2ccc(-c3ccc(Br)cc3)cc2)Cc2ccccc21 (stereo unspecified)
  LD50: 0.55 mg/kg

## C=CCO
  LD50: 64 mg/kg

## C#CC(C)(C)NC(=O)c1cc(Cl)cc(Cl)c1
  LD50: 3350 mg/kg

## CC1=CC(=O)NS(=O)(=O)O1
  LD50: 5440 mg/kg

## CCOP(=S)(OCC)Oc1nc(Cl)c(Cl)cc1Cl
  LD50: 108 mg/kg

## Cc1ccccc1NC(=N)NC(=N)N
  LD50: 800 mg/kg

## CNS(=O)(=O)c1cc(OC)c(N)cc1OC
  LD50: 815 mg/kg
